Results from ChEMBL document CHEMBL2203036, “Discovery of 1-[2-(2,4-dimethylphenylsulfanyl)phenyl]piperazine (Lu AA21004): a novel multimodal compound for the treatment of major depressive disorder” (J Med Chem, 2011).

Molecular target: 5-hydroxytryptamine receptor 2C (Homo sapiens) (UniProt P28335)
Experiment: Binding affinity to human 5HT2C receptor

Sequence of 5-hydroxytryptamine receptor 2C (Homo sapiens) (P28335 whole entry, looked up): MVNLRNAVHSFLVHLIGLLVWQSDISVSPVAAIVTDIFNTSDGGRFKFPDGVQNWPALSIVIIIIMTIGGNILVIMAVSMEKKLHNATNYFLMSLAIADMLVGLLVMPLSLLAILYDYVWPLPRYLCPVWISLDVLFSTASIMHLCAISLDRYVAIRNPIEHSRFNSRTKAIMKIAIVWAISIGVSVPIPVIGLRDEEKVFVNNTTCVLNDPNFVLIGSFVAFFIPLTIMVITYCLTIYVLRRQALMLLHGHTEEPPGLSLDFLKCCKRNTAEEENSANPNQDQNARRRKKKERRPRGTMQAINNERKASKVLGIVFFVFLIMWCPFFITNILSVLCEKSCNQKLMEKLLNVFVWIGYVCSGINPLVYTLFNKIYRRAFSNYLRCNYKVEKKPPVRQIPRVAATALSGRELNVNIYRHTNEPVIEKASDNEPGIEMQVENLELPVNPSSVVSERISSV

`Cc1ccc(Sc2ccccc2N2CCNCC2)c(C)c1.Cl` showed a Ki of 180 nM.
